Like-named read-outs stand apart in the source and are kept apart here.
Tests used:
mock-infected MT4 cells = assay: General toxicity assay on mock-infected MT4 cells with CMV-EGFP reporter (CC50); assay type: cell-based
HIV-1 IIIB = assay: 50% HS-Rezazurin: antiviral assay in the presence of 50% human serum, MT-4 cells, resazurin cell viability; assay type: cell-based
Protocol: For the Antiviral assay in the presence of 50% human serum MT-4 cells were infected with HIV-1 IIIB at a MOI of 0.001 to 0.01 CCID50/cell in RPMI1640 medium. Following 1 h of incubation, cells were washed and plated into a 96-well plate containing serial dilutions of compound in the presence of 10% fetal calf serum (FCS), or 50% human serum. After 4 days incubation, the EC50 in the presence of 50% human serum was determined by a cell viability assay using resazurin.
The last column lists the results for the wild-type strain IIB in the presence of 50% human serum MT-4 cells.

HIV-1 wild-type strain = assay: General antiviral assay, cell-based virus replication in MT4-LTR-EGFP cells, wild-type strain; conditions: wild-type strain IIIB, MT4-LTR-EGFP cells
Protocol: (§1) MT4-LTR-EGFP cells were obtained by transfecting MT4 cells with a selectable construct encompassing the sequences coding for the HIV long terminal repeat (LTR) as a promoter for the expression of enhanced green fluorescent protein (EGFP) and subsequent selection of permanently transfected cells.
(§2) The antiviral activity on different HIV-1 strains, was determined in a cell-based virus replication assay. Here MT4-LTR-EGFP cells (150,000 cells/ml) are infected (multiplicity of infection [MOI] of 0.0025) in the presence or absence of different inhibitor concentrations. Two methodologies for read-out were used, either quantification of GFP-fluoresence on day 3 post-infection, or quantification of cell-viability using rezazurin (as described by Fields, R. D., and M. V. Lancaster (1993) Am. Biotechnol. Lab. 11:48-50) on day 4 post infection.

[1] = system: HIV-1 Strain B (M046I, I050V); assay: microbe, parasite or virus in culture; assay type: cell-based; conditions: clinical isolate Strain B; read-out: B EC50
Protocol: as §1, §2
(§3) In the following Table, Strains A, B, and C are clinical isolates that include the following protease inhibitor resistance mutations in the protease domain (background mutations are not mentioned).

[2] = system: HIV-1 Strain A (M046I, I084V); assay: microbe, parasite or virus in culture; assay type: cell-based; conditions: clinical isolate Strain A; read-out: A EC50
Protocol: as §1, §2, §3

[3] = system: HIV-1 Strain C (G048G/V, V082A); assay: microbe, parasite or virus in culture; assay type: cell-based; conditions: clinical isolate Strain C; read-out: C EC50
Protocol: as §1, §2, §3

[4] = MT4LTR cells, read-out: TOX-MT4LTR (CC50)
[5] = mock-infected MT4 cells with CMV-EGFP reporter, read-out: TOX-MT4CMV (CC50)

Structure (SMILES) | CC50 (mock-infected MT4 cells; [4]) [nM] | CC50 (mock-infected MT4 cells; [5]) [nM] | EC50 (HIV-1 IIIB) [nM] | EC50 (HIV-1 wild-type strain) [nM] | EC50 [1] [nM] | EC50 [2] [nM] | EC50 [3] [nM]
COCCOC(=O)N[C@H](C(=O)N[C@@H](Cc1ccc(-c2ccc(N(C)C)nc2)cc1)[C@@H](O)C[C@@H](Cc1ccccc1F)C(=O)N[C@H]1c2cc(F)ccc2OC[C@H]1O)C(C)(C)C [Compound 34] | > 32000 | > 32000 | 10 | 2.7 | 1.5 | 2 | 1.3
COC(=O)N[C@H](C(=O)N[C@@H](Cc1ccc(-c2cnc(N(C)C)nc2)cc1)[C@@H](O)C[C@@H](Cc1cccc(F)c1)C(=O)N[C@H]1c2cc(F)ccc2OC[C@H]1O)C(C)(C)C [Compound 62] | > 32000 | – | 16.3 | 3.2 | 1.5 | 2.2 | 0.9
COC(=O)N[C@H](C(=O)N[C@@H](Cc1ccc(-c2ccnc(C(F)(F)F)c2)cc1)[C@@H](O)C[C@@H](Cc1ccccc1F)C(=O)N[C@H]1c2cc(Cl)ccc2OC[C@H]1O)C(C)(C)C [Compound 31] | – | > 32000 | 26.4 | 7 | 3.2 | 5 | 3.4
COC(=O)NC(C(=O)NC(Cc1ccc(-c2cc(C)nc(C3CC3)c2)cc1)C(O)CC(Cc1ccccc1F)C(=O)NC1c2cc(Cl)ccc2OCC1O)C(C)(C)C (stereo not shown) [Compound 21] | – | > 32000 | 34.9 | 6.1 | 3.2 | 3.8 | 3.6
COC(=O)N[C@H](C(=O)N[C@@H](Cc1ccccc1)[C@@H](O)CN(Cc1ccc(-c2ccccn2)cc1)NC(=O)[C@@H](NC(=O)OC)C(C)(C)C)C(C)(C)C [ATV] | > 32000 | 26000 | 16 | 7.6 | 3.3 | 59 | 62
Cc1cccc(C)c1OCC(=O)N[C@@H](Cc1ccccc1)[C@@H](O)C[C@H](Cc1ccccc1)NC(=O)[C@H](C(C)C)N1CCCNC1=O [LPV] | > 32000 | 20000 | 61 | 13 | 320 | 110 | 31
COC(=O)NC(C(=O)NC(Cc1ccc(-c2cnc(N(C)C)cn2)cc1)C(O)CC(Cc1ccccc1F)C(=O)NC1c2cc(Cl)ccc2OCC1O)C(C)(C)C (stereo not shown) [Compound 22] | – | > 32000 | 26.4 | 3.8 | 2.6 | 3.5 | 2.1
COC(=O)N[C@H](C(=O)N[C@@H](Cc1ccc(-c2cnc(N(C)C)nc2)cc1)[C@@H](O)C[C@@H](Cc1ccccc1Cl)C(=O)N[C@H]1c2cc(F)ccc2OC[C@H]1O)C(C)(C)C [Compound 63] | > 32000 | – | 9.4 | 1.5 | 0.7 | 1.2 | 0.6
COC(=O)NC(C(=O)NC(Cc1ccc(-c2ccc(N(C)C)nc2)cc1)C(O)CC(Cc1ccccc1F)C(=O)NC1c2ccccc2OCC1O)C(C)(C)C (stereo not shown) [Compound 7] | > 49000 | > 32000 | 10.4 | 1.6 | 0.9 | 1.5 | 0.8
COC(=O)NC(C(=O)NC(Cc1ccc(-c2cc(C)nc(C)c2)cc1)C(O)CC(Cc1ccccc1F)C(=O)NC1c2cc(Cl)ccc2OCC1O)C(C)(C)C (stereo not shown) [Compound 12] | – | > 32000 | 35.7 | 4 | 3 | 3.7 | 2.2
COC(=O)NC(C(=O)NC(Cc1ccc(-c2ccc(OC)nc2)cc1)C(O)CC(Cc1ccccc1F)C(=O)NC1c2cc(F)cc(C)c2OCC1O)C(C)(C)C (stereo not shown) [Compound 102] | > 32000 | – | 6.8 | 2.3 | 3.3 | 5.4 | 1.5
COC(=O)NC(C(=O)NC(Cc1ccc(-c2ccc(N(C)C)nc2)cc1)C(O)CC(Cc1cccc(Cl)c1)C(=O)NC1c2cc(F)ccc2OCC1O)C(C)(C)C (stereo not shown) [Compound 13] | – | > 32000 | 22.6 | 4.7 | 3 | 4.6 | 2.4
COC(=O)N[C@H](C(=O)N[C@@H](Cc1ccc(-c2csc(OC)n2)cc1)[C@@H](O)C[C@@H](Cc1ccccc1F)C(=O)N[C@H]1c2cc(Cl)ccc2OC[C@H]1O)C(C)(C)C [Compound 29] | – | 10000 | 13.7 | 5.5 | 3.4 | 6.6 | 3.1
COC(=O)NC(C(=O)NC(Cc1ccc(-c2cnc(C)s2)cc1)C(O)CC(Cc1ccccc1F)C(=O)NC1c2cc(Cl)ccc2OCC1O)C(C)(C)C (stereo not shown) [Compound 11] | – | > 32000 | 22.4 | 4.2 | 3.5 | 3.9 | 2.1
COc1ccc(-c2ccc(C[C@H](NC(=O)O[C@H]3CO[C@H]4OCC[C@H]43)[C@@H](O)C[C@@H](Cc3ccccc3F)C(=O)N[C@H]3c4cc(Cl)ccc4OC[C@H]3O)cc2)cn1 [Compound 72] | > 32000 | – | 5.8 | 1.5 | 0.8 | 0.8 | 0.5
COC(=O)N[C@H](C(=O)N[C@@H](Cc1ccc(-c2cnc(C3CC3)s2)cc1)[C@@H](O)C[C@@H](Cc1ccccc1F)C(=O)N[C@H]1c2cc(Cl)ccc2OC[C@H]1O)C(C)(C)C [Compound 28] | – | > 32000 | 22.5 | 3.2 | 2.1 | 3.1 | 1.4
COc1ccc(-c2ccc(C[C@H](NC(=O)O[C@H]3CO[C@H]4OCC[C@H]43)[C@@H](O)C[C@@H](Cc3ccccc3F)C(=O)N[C@H]3c4cc(F)ccc4OC[C@H]3O)cc2)cn1 [Compound 80] | > 32000 | – | 10.9 | 2.4 | 1.1 | 1.5 | 0.8
COC(=O)N[C@H](C(=O)N[C@@H](Cc1ccc(-c2ccc(OC)nc2)cc1)[C@@H](O)C[C@@H](Cc1ccccc1Cl)C(=O)N[C@H]1c2cc(Cl)ccc2OC[C@H]1O)C(C)(C)C [Compound 58] | > 32000 | – | 13.3 | 3.9 | 2.5 | 6 | 1.8
COC(=O)NC(C(=O)NC(Cc1ccc(-c2ccc(N(C)C)nc2)cc1)C(O)CC(Cc1ccccc1F)C(=O)NC1c2cc(F)cc(F)c2OCC1O)C(C)(C)C (stereo not shown) [Compound 10] | – | > 32000 | 20.1 | 3.2 | 2.5 | 4 | 1.7
COc1ccc(-c2ccc(C[C@H](NC(=O)[C@@H](NC(=O)C3(C#N)CC3)C(C)(C)C)[C@@H](O)C[C@@H](Cc3ccccc3F)C(=O)N[C@H]3c4cc(Cl)ccc4OC[C@H]3O)cc2)cn1 [Compound 47] | > 32000 | – | 10.4 | 3.2 | 6.8 | 11.1 | 5.5

Reference: US20120295920A1, “5-AMINO-4-HYDROXYPENTOYL AMIDES” (priority 2009, published 2012)
